Test results: patent US7649013B2, “Methods of protecting against radiation injury” (priority 2003, dated 2010)
“Also recorded” adds a separate entry of the source.

Assays:
rats = conditions: p.o. daily for one month; cited from earlier work
[1] = test system: BRCA1 in human colon cancer cells (SW480); test: Relative expression of cell cycle checkpoint genes, Human Cell-cycle Checkpoint GEArray Kit; type: cell-based; conditions: SW480, 2 μM, 4 hours, vs carrier alone
Procedure: Exponentially growing human colon cancer cells (SW480) are treated with β-lapachone at 2 μM, or carrier alone control, for 4 hours. Total RNA is prepared by Trizol reagents. Relative expression levels of multiple genes involved in cell cycle checkpoint are determined with the Human Cell-cycle Checkpoint GEArray Kit (SuperArray Inc. Bethesda, Md.) (FIG. 3). The up-regulation of the E2F1 target BRCA1 in β-lapachone treated cancer cells is another indication of E2F1 activation. BRCA1 is a tumor suppressor involved in many roles within the cell including DNA repair.

[2] = test system: E2F1 in human colon cancer cells (SW480); test: E2F1 level in whole cell extracts, SDS/PAGE and enhanced chemiluminescence, colon cancer cells; type: cell-based; conditions: SW480, 2 μM, 20 minute to 4 hour exposures
Procedure: (§1) Human colon cancer cells (SW480) and normal colon cells (NCM460) are treated with β-lapachone at a concentration of 2 μM and are harvested after 20 minute, 1 hour, 2 hour, or 4 hour exposures. Whole cell extracts are prepared and resolved by SDS/PAGE. An enhanced chemiluminescence assay system (Amersham Pharmacia) is used to determine the E2F1 level. Monoclonal antibody against […] is obtained from Santa Cruz Biotechnology (Santa Cruz, Calif.). […] Elevation of E2F1 following exposure to β-lapachone persists through cell death in cancer cells.

[3] = test system: C57BL/6J inbred strain female mice; test: Thymic cellularity after whole body irradiation, hematoxylin-eosin sections (Example 7a); type: in vivo; conditions: 40 mg/kg i.p. 0.5 hour before 8 Gy; day five
Procedure: β-lapachone is prepared at 10 mg/ml in 40% hydroxypropyl-beta-cyclodextrin (HPBCD). C57BL/6J inbred strain female mice (4-5 weeks old) are organized into three groups of six mice each: Group I mice receive no radiation, no β-lapachone, and no carrier; Group II mice receive radiation and are injected with carrier (40% HPBCD 4 ml/kg body weight); and Group III mice are injected intraperitoneally at 0.5 hour before irradiation with β-lapachone (40 mg/kg body weight). Whole body irradiation of animals with 8 Gy of γ-rays is carried out in air at room temperature in a gamma chamber (Gammacell 40 Exactor), with a dose-rate of 1.05 Gy/min. This radiation dose is within the range of equivalent human exposures predicted in many scenarios of radiologic or nuclear terrorist attack. Following irradiation, animals are maintained in a climate-controlled animal facility. Three mice in each of Groups I, II, and III are sacrificed on day five following irradiation, and an analysis of thymic cellularity is performed for each. The remaining mice are sacrificed on day eight following irradiation, and an analysis of thymic cellularity is performed for each. Thymic cellularity is qualitatively assessed in sections stained with hematoxylin-eosin following standard procedures.

[4] = test system: E2F1 in normal colon cells (NCM460); test: E2F1 level in whole cell extracts, SDS/PAGE and enhanced chemiluminescence, normal colon cells; type: cell-based, human; conditions: NCM460, 2 μM, 20 minute to 4 hour exposures
Procedure: as §1

[5] = test system: C57BL/6J inbred strain female mice; test: Survival after 8 Gy whole body γ-irradiation, intraperitoneal dosing 4 hours before or after (Example 4); type: in vivo; conditions: for No. of animals surviving at 20 days post-irradiation: 4 animals; for Death rate (%): 20 days
Procedure: β-lapachone is prepared at 10 mg/ml in 40% hydroxypropyl-beta-cyclodextrin (HPBCD).
C57BL/6J inbred strain female mice (4-5 weeks old) are used. Animals are maintained in a climate-controlled animal facility.
Animals are injected with different concentrations of β-lapachone (20 and 40 mg/kg body weight) intraperitoneally 4 hours before or after irradiation.
Whole body irradiation of animals with 8 Gy of γ-rays is carried out in air at room temperature in a gamma chamber (Gammacell 40 Exactor), at a dose-rate of 1.05 Gy/min. This radiation dose is within the range of equivalent human exposures predicted in many scenarios of radiologic or nuclear terrorist attack.
Mice are divided into the following groups (each Group comprises four mice receiving identical treatment):
Group II: Mice are injected with β-lapachone 20 mg/kg body weight 4 hours before radiation.
Group III: Mice are injected with β-lapachone 40 mg/kg body weight 4 hours before radiation.
Group IV: Mice are injected with β-lapachone 20 mg/kg body weight 4 hours after radiation.
Group V: Mice are injected with β-lapachone 40 mg/kg body weight 4 hours after radiation.
Group VI: Mice are injected with amifostine 10 mg/kg body weight 4 hours before radiation.
Animals are irradiated with 8 Gy at 1.05 Gy/min dose-rate. After irradiation mice are returned to their cage and observed on a regular basis. Exposure to γ-rays causes lethality in animals. Importantly, treatment with β-lapachone, especially at a level of 40 mg/kg prior to irradiation, diminishes the death rate.

[6] = test system: Chk2 in human cervical cancer cells (HeLa); test: Chk2 phosphorylation by immunoblotting of whole cell lysates; type: cell-based; conditions: 4 μM
Procedure: Human cervical cancer cells (HeLa) are treated with 4 μM β-lapachone for 0, 3, 10, 30, 60 and 120 minutes. Whole cell lysates are prepared, separated by SDS-PAGE, and analyzed by immunoblotting with anti-Chk2 and anti-phosphorylated-Chk2 antibodies.

dogs = conditions: p.o. daily for one month; cited from earlier work
[7] = 20 mg/kg i.p. 4 hr after Radiation 8 Gy
[8] = 20 mg/kg i.p. 4 hr before Radiation 8 Gy
[9] = 40 mg/kg i.p. 4 hr before Radiation 8 Gy
[10] = Radiation 8 Gy 4 hr → 20 mg/kg as printed (second such line of Table 1)

## CC1(C)CCC2=C(O1)c1ccccc1C(=O)C2=O [β-lapachone, 3,4-dihydro-2,2-dimethyl-2H-naphtho[1,2-b]pyran-5,6-dione]
rats
  Maximum tolerated dose: 200 mg/kg
[1]
  BRCA1 relative expression level: induces increased expression; also recorded: up-regulation
[2]
  E2F1 level: Elevation of E2F1 is seen in tumor cells; also recorded: induces increased expression of E2F1
[3]
  Thymic cellularity in thymic sections (FIG. 8): preserves thymic cellularity
[4]
  E2F1 level: not in similarly treated normal human colon cells
[5]; [7]
  Median survival time: 14 days
  No. of animals surviving at 20 days post-irradiation: 1
  Death rate (%): 75%
[5]; [8]
  Median survival time: 13.5 days
  No. of animals surviving at 20 days post-irradiation: 0
  Death rate (%): 100%
[5]; 40 mg/kg i.p. 4 hr after Radiation 8 Gy
  Median survival time: 16.4 days
[5]; [9]
  Median survival time: 25 days
  No. of animals surviving at 20 days post-irradiation: 3
  Death rate (%): 25%
[5]; 20, 40 mg/kg i.p., 4 hours before or after 8 Gy, vs control decline at 10-14 days
  Temporal survival pattern (FIG. 5): delayed this early decline in survival
[5]; [10]
  No. of animals surviving at 20 days post-irradiation: 0
  Death rate (%): 100%
[6]
  Time at which phosphorylated Chk2 levels appear: 10 min
[6]; 0-120 minutes
  Phosphorylated Chk2 (p-Chk2) level / proportion of phosphorylated Chk2: induces an increase in the proportion of phosphorylated Chk2; also recorded: sustained increase
  Total amount of Chk2 within the cells: remains unchanged
dogs
  Maximum tolerated dose: 100 mg/kg
